Structures can show the parent of a compound that is named as a salt. Where two headings read alike, the source gives them in different places.
Tests used:
[1] = system: leukotriene pathway in human whole blood (LTB4 levels); assay: Human whole blood assay (A23187-stimulated LTB4); type: cell-based; conditions: read-out: LTB4 IC50 1:1
Procedure, shortened: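 Heparinised human whole blood, diluted 1:1 in RPMI, was pre-incubated with test compounds for 15 min at 37° Celsius, then stimulated with A23187 (7 μg/mL) for 30 min at 37° Celsius. Plasma LTB4 was measured by immunoassay kit; IC50 from 4-parameter fit; single replicate, at least one healthy donor.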

[2] = target: human FLAP (Homo sapiens (Human), UniProt P20292); assay: FLAP binding assay (HTRF format); conditions: HTRF format
human FLAP, sequence (P20292 whole entry): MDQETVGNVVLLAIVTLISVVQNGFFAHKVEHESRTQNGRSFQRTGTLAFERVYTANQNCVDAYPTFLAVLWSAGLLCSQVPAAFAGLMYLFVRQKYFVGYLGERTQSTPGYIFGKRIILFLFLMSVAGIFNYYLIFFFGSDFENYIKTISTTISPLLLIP
Procedure, shortened: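 Read-out is the HTRF ratio. Each reported figure averages two assay plates on which samples were tested in duplicate.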

[3] = Homo sapiens, human whole blood diluted 1:1 in RPMI, A23187-stimulated LTB4
[4] = human FLAP wild type, average of two plates, duplicates
[5] = Homo sapiens, human whole blood diluted 1:1, A23187-stimulated

| Structure (SMILES) | IC50 [1, 3] | Ki [2, 4] | IC50 [1, 5] | Ki ([2]; wild type FLAP) | IC50 ([1]; human whole blood diluted 1:1 in RPMI, A23187-stimulated LTB4) |
| --- | --- | --- | --- | --- | --- |
| Nc1ccc(-c2ccc(-c3ccccc3S(=O)(=O)N3C[C@@H]4C[C@H]3CO4)cc2F)cn1 [Example 356, 5-(2′-((1S,4S)-2-Oxa-5-azabicyclo[2.2.1]heptan-5-ylsulfonyl)-3-fluoro-[1,1′-biphenyl]-4-yl)pyridin-2-amine] | 107 nM | 32 nM | – | – | – |
| C[C@@H](CO)NS(=O)(=O)c1ccccc1-c1ccc(-c2ncc(N)nc2C#N)c(F)c1 [Example 711, 4′-(5-Amino-3-cyanopyrazin-2-yl)-3′-fluoro-N-[(1S)-2-hydroxy-1-methylethyl]biphenyl-2-sulfonamide] | – | – | 142 nM | 41.7 nM | – |
| Nc1cnc(-c2ccc(-c3ccc(C(F)(F)F)cc3CN3CCOCC3)cc2F)cn1 [Example 605, 5-[3-Fluoro-2′-(morpholin-4-ylmethyl)-4′-(trifluoromethyl)biphenyl-4-yl]pyrazin-2-amine] | – | – | 97.8 nM | 1.9 nM | – |
| Nc1cnc(-c2ccc(-c3ccccc3S(=O)(=O)N3CCC[C@H](N)C3)cc2F)cn1 [Example 137, (S)-5-{2′-[(3-Aminopiperidin-1-yl)sulfonyl]-3-fluorobiphenyl-4-yl}pyrazin-2-amine] | 44 nM | 3 nM | – | – | – |
| Nc1ncc(-c2ccc(-c3ccccc3Sc3ccnc(N)n3)cc2F)cn1 [Example 335, 4-{[4′-(2-Aminopyrimidin-5-yl)-3′-fluorobiphenyl-2-yl]sulfanyl}pyrimidin-2-amine formate salt] | 37 nM | 2 nM | – | – | – |
| Nc1cnc(-c2ccc(-c3ccccc3NS(=O)(=O)C3CCC3)cc2F)cn1 [Example 40, N-(4′-(5-Aminopyrazin-2-yl)-3′-fluoro-[1,1′-biphenyl]-2-yl)cyclobutanesulfonamide] | 112 nM | 14 nM | – | – | – |
| Nc1cnc(-c2ccc(-c3ccccc3S(=O)(=O)N3C[C@@H]4C[C@H]3CN4)cc2F)cn1 [Example 131, 5-(2′-((1S,4S)-2,5-Diazabicyclo[2.2.1]heptan-2-ylsulfonyl)-3-fluoro-[1,1′-biphenyl]-4-yl)pyrazin-2-amine] | 695 nM | 144 nM | – | – | – |
| CC(C)(CO)NS(=O)(=O)c1ccccc1-c1ccc(-c2ccc(N)nc2)c(F)c1 [Example 665, 4′-(6-Aminopyridin-3-yl)-3′-fluoro-N-(1-hydroxy-2-methylpropan-2-yl)-[1,1′-biphenyl]-2-sulfonamide] | – | – | 22.4 nM | 2.6 nM | – |
| Fc1cc(-c2ccccc2Oc2ncccn2)ccc1-c1cnc2[nH]cnc2c1 [Example 544, 6-[3-Fluoro-2′-(pyrimidin-2-yloxy)biphenyl-4-yl]-3H-imidazo[4,5-b]pyridine] | – | – | 1650 nM | 28 nM | – |
| Nc1cnc(-c2ccc(-c3ccccc3Oc3nccc(C(F)(F)F)n3)cc2F)cn1 [Example 612, 5-(3-Fluoro-2′-{[4-(trifluoromethyl)pyrimidin-2-yl]oxy}biphenyl-4-yl)pyrazin-2-amine] | – | – | 42 nM | 14.6 nM | – |
| CC(C)(C)[C@@H](CO)NS(=O)(=O)c1ccccc1-c1ccc(-c2cnc(N)cn2)c(F)c1 [Example 149, (S)-4′-(5-Aminopyrazin-2-yl)-3′-fluoro-N-(1-hydroxy-3,3-dimethylbutan-2-yl)-[1,1′-biphenyl]-2-sulfonamide] | 82 nM | 5 nM | – | – | – |
| Nc1cnc(-c2ccc(-c3ccccc3S(=O)(=O)NC[C@@H](O)CO)cc2F)cn1 [Example 105, (R)-4′-(5-Aminopyrazin-2-yl)-N-(2,3-dihydroxypropyl)-3′-fluoro-[1,1′-biphenyl]-2-sulfonamide] | 481 nM | 25 nM | – | – | – |
| CC(C)S(=O)(=O)c1ncccc1-c1ccc(-c2cnc(N)cn2)c(F)c1 [Example 395, 5-(2-Fluoro-4-{2-[(1-methylethyl)sulfonyl]pyridin-3-yl}phenyl)pyrazin-2-amine] | – | – | 32 nM | 9 nM | – |
| Nc1cnc(-c2ccc(-c3ccccc3S(=O)(=O)N3CCN4CCCC4C3)cc2F)cn1 (racemic) [Example 61, racemic 5-[3-Fluoro-2′-(hexahydropyrrolo[1,2-a]pyrazin-2(1H)-ylsulfonyl)biphenyl-4-yl]pyrazin-2-amine] | 117 nM | 11 nM | – | – | – |

Second part, the molecule after the results:

| IC50 [1, 3] | Ki [2, 4] | IC50 [1, 5] | Ki ([2]; wild type FLAP) | IC50 ([1]; human whole blood diluted 1:1 in RPMI, A23187-stimulated LTB4) | Structure (SMILES) |
| --- | --- | --- | --- | --- | --- |
| – | – | 1490 nM | 334 nM | – | C[C@@H](NS(=O)(=O)c1ccccc1-c1ccc(-c2cnc(N)nc2)nc1)C(F)(F)F [Example 686, 2-[6-(2-Aminopyrimidin-5-yl)pyridin-3-yl]-N-[(1R)-2,2,2-trifluoro-1-methylethyl]benzenesulfonamide trifluoroacetic acid salt] |
| – | – | 442 nM | 159 nM | – | Nc1cnc(-c2ccc(-c3ccccc3C(=O)N3CCC[C@@H](O)C3)cc2F)cn1 [Example 762, (3R)-1-{[4′-(5-Aminopyrazin-2-yl)-3′-fluorobiphenyl-2-yl]carbonyl}piperidin-3-ol] |
| – | – | 509 nM | 4 nM | – | CC(C)CS(=O)(=O)Nc1ccccc1-c1ccc(-c2cnc3[nH]ccc3n2)c(F)c1 [Example 495, N-[3′-Fluoro-4′-(5H-pyrrolo[2,3-b]pyrazin-2-yl)biphenyl-2-yl]-2-methylpropane-1-sulfonamide] |
| – | – | 106 nM | 52.2 nM | – | Nc1ncc(-c2ccc(-c3ccccc3S(=O)(=O)N3CCCCCC3)cn2)cn1 [Example 681, 5-{5-[2-(Azepan-1-ylsulfonyl)phenyl]pyridin-2-yl}pyrimidin-2-amine trifluoroacetic acid salt] |
| 12 nM | 1 nM | – | – | – | Nc1cnc(-c2ccc(-c3ccccc3S(=O)(=O)NCC3CC3)cc2F)cn1 [Example 90, 4′-(5-Aminopyrazin-2-yl)-N-(cyclopropylmethyl)-3′-fluorobiphenyl-2-sulfonamide] |
| 202 nM | 243 nM | – | – | – | Nc1ncc(-c2ccc(-c3ccccc3S(=O)(=O)N3CCNC[C@@H]3CO)cc2F)cn1 [Example 258, [(2R)-1-{[4′-(2-Aminopyrimidin-5-yl)-3′-fluorobiphenyl-2-yl]sulfonyl}piperazin-2-yl]methanol] |
| 94 nM | 59 nM | – | – | – | N#CCCN(C1CC1)S(=O)(=O)c1ccccc1-c1ccc(-c2cnc(N)nc2)c(F)c1 [Example 249, 4′-(2-Aminopyrimidin-5-yl)-N-(2-cyanoethyl)-N-cyclopropyl-3′-fluorobiphenyl-2-sulfonamide] |
| 29 nM | 3 nM | – | – | – | Nc1cnc(-c2ccc(-c3ccccc3S(=O)(=O)N[C@H]3CC[C@H](O)CC3)cc2F)cn1 [Example 110, 4′-(5-Aminopyrazin-2-yl)-3′-fluoro-N-(4-hydroxycyclohexyl)biphenyl-2-sulfonamide] |
| – | 1 nM | – | – | 9 nM | C[C@@H](NS(=O)(=O)c1ccccc1-c1ccc(-c2cnc(N)cn2)c(F)c1)C(F)(F)F [Example 20, (S)-4′-(5-Aminopyrazin-2-yl)-3′-fluoro-N-[(1S)-2,2,2-trifluoro-1-methylethyl]biphenyl-2-sulfonamide] |
| 145 nM | 10 nM | – | – | – | Nc1cnc(-c2ccc(-c3ccccc3S(=O)(=O)N[C@@H]3CCCNC3=O)cc2F)cn1 [Example 113, (R)-4′-(5-Aminopyrazin-2-yl)-3′-fluoro-N-(2-oxopiperidin-3-yl)biphenyl-2-sulfonamide] |
| – | – | 3940 nM | 32.8 nM | – | CC(C)(C)NC(=O)c1cc(C(F)(F)F)ccc1-c1ccc(-c2cnc(N)nc2)c(F)c1 [Example 794, 2-[4-(2-Aminopyrimidin-5-yl)-3-fluoro-phenyl]-N-tert-butyl-5-(trifluoromethyl)benzamide] |
| 111 nM | 142 nM | – | – | – | CC1CN(S(=O)(=O)c2ccccc2-c2ccc(-c3cnc(N)cn3)c(F)c2)CC(C)N1 (racemic) [Example 62, Racemic-5-{2′-[(3,5-Dimethylpiperazin-1-yl)sulfonyl]-3-fluorobiphenyl-4-yl}pyrazin-2-amine] |
| – | – | 2340 nM | 73.5 nM | – | CC(CO)Oc1ncccc1-c1ccc(-c2cnc(N)cn2)c(F)c1 (stereo in doubt) [Example 657, (2S)-2-({3-[4-(5-Aminopyrazin-2-yl)-3-fluorophenyl]pyridin-2-yl}oxy)propan-1-ol] |
| – | – | 340 nM | 74 nM | – | CC(C)(C)NS(=O)(=O)c1ccccc1-c1ccc(-c2cnc(N)c(C#N)c2)c(F)c1 [Example 450, 4′-(6-Amino-5-cyanopyridin-3-yl)-N-tert-butyl-3′-fluorobiphenyl-2-sulfonamide trifluoroacetic acid salt] |
| 248 nM | 2 nM | – | – | – | CC(C)CNS(=O)(=O)c1ccccc1-c1ccc(-c2cnc(N)nc2)c(F)c1 [Example 294, 4′-(2-Aminopyrimidin-5-yl)-3′-fluoro-N-(2-methylpropyl)biphenyl-2-sulfonamide trifluoroacetic acid salt] |
| 62 nM | 14 nM | – | – | – | Nc1ncc(-c2ccc(-c3ccccc3Sc3ncncc3N)cc2F)cn1 [Example 331, 5-{2′-[(5-Aminopyrimidin-4-yl)sulfanyl]-3-fluorobiphenyl-4-yl}pyrimidin-2-amine formate salt] |
| – | – | 53.4 nM | 1.7 nM | – | CCNS(=O)(=O)c1cc(C(F)(F)F)ccc1-c1ccc(-c2ncc(N)nc2C#N)c(F)c1 [Example 713, 4′-(5-Amino-3-cyanopyrazin-2-yl)-N-ethyl-3′-fluoro-4-(trifluoromethyl)-[1,1′-biphenyl]-2-sulfonamide] |
| – | – | 509 nM | 19 nM | – | CC(CO)NS(=O)(=O)c1ccccc1-c1ccc(-c2cnc(N)c(C#N)n2)c(F)c1 (stereo in doubt) [Example 412, 4′-(5-Amino-6-cyanopyrazin-2-yl)-3′-fluoro-N-[(1S)-2-hydroxy-1-methylethyl]biphenyl-2-sulfonamide] |

From patent US9079866B2, “Flap modulators” (JANSSEN PHARMACEUTICA NV, priority 2013, dated 2015)
